Where two headings read alike, the source gives them in different places.
Test system: C. parvum strain UGA1
Assay: C. parvum growth inhibition assay (Nluc luminescence in HCT-8 cells)
Type: cell-based, Cryptosporidium parvum
Conditions: Cryptosporidium parvum; for inhibition at 1 µM / inhibition at 10 µM: HCT-8; for inhibition at 1 µM: read-out: % inh @ 1 uM C. parvum; for inhibition at 10 µM: read-out: % inh @ 10 uM C. parvum; for EC50: HCT-8, 48 h, C. parvum growth inhibition in HCT-8 cells, 48 hours, 6 concentrations 10-0.04 μM
[1] = single point inhibition at 1 uM
[2] = single point inhibition at 10 uM
[3] = single point inhibition @ 10 uM

Compound	inhibition at 1 µM [1]	inhibition at 10 µM [2]	EC50	inhibition at 1 µM (single point inhibition @ 1 uM)	inhibition at 10 µM [3]
Cc1cc(-c2cc3cnc(NC(=O)N4CCCC4)cc3[nH]2)ccn1 [Example 261, N-(2-(2-methylpyridin-4-yl)-1H-pyrrolo[3,2-c]pyridin-6-yl)pyrrolidine-1-carboxamide]	0 to 33%	0 to 33%			
CCOc1nccc(-c2cc3cnc(NC(=O)[C@H]4C[C@H](O)C4)cc3[nH]2)n1 [Example 253, (1r,3r)-N-(2-(2-ethoxypyrimidin-4-yl)-1H-pyrrolo[3,2-c]pyridin-6-yl)-3-hydroxycyclobutanecarboxamide]	0 to 33%	0 to 33%			
c1cncc(-c2cc3cnc(NC4CCOCC4)cc3[nH]2)c1 [Example 72, 2-(pyridin-3-yl)-N-(tetrahydro-2H-pyran-4-yl)-1H-pyrrolo[3,2-c]pyridin-6-amine]			> 1 µM	0 to 33%	0 to 33%
FC(F)(F)CCc1nccc(-c2cc3cnc(NC4CCOCC4)cc3[nH]2)n1 [Example 385, N-(tetrahydro-2H-pyran-4-yl)-2-(2-(3,3,3-trifluoropropyl)pyrimidin-4-yl)-1H-pyrrolo[3,2-c]pyridin-6-amine]			> 1 µM		
CN(C)C(=O)Nc1cc2[nH]c(C(F)(F)F)cc2cn1 [Example 108, 1,1-dimethyl-3-(2-(trifluoromethyl)-1H-pyrrolo[3,2-c]pyridin-6-yl)urea]			> 1 µM		
Cn1cc(C(=O)Nc2cc3[nH]c(-c4ccnc(C(F)(F)F)n4)cc3cn2)cn1 [Example 287, 1-methyl-N-(2-(2-(trifluoromethyl)pyrimidin-4-yl)-1H-pyrrolo[3,2-c]pyridin-6-yl)-1H-pyrazole-4-carboxamide]	0 to 33%	0 to 33%			
COc1nccc(-c2cc3cnc(NC(=O)c4ccc(N5CCOCC5)cc4)cc3[nH]2)n1 [Example 320, N-(2-(2-methoxypyrimidin-4-yl)-1H-pyrrolo[3,2-c]pyridin-6-yl)-4-morpholinobenzamide]	0 to 33%	0 to 33%			
Cc1cc(-c2cc3cnc(NC(=O)N(C)C)cc3[nH]2)ccn1 [Example 291, 1,1-dimethyl-3-(2-(2-methylpyridin-4-yl)-1H-pyrrolo[3,2-c]pyridin-6-yl)urea]	0 to 33%	0 to 33%			
FC1(F)CC(c2cc3cnc(NC4CCOCC4)cc3[nH]2)C1 [Example 397, 2-(3,3-difluorocyclobutyl)-N-(tetrahydro-2H-pyran-4-yl)-1H-pyrrolo[3,2-c]pyridin-6-amine]	33 to 66%	33 to 66%			
Cc1cc(-c2cc3cnc(N[C@H]4CCCOC4)cc3[nH]2)ccn1 [Example 22, (S)-2-(2-Methylpyridin-4-yl)-N-(tetrahydro-2H-pyran-3-yl)-1H-pyrrolo[3,2-c]pyridin-6-amine]			> 1 µM	33 to 66%	67 to 100%
Cn1cc(C(=O)Nc2cc3[nH]c(-c4cc(C(F)(F)F)ncn4)cc3cn2)cn1 [Example 254, 1-methyl-N-(2-(6-(trifluoromethyl)pyrimidin-4-yl)-1H-pyrrolo[3,2-c]pyridin-6-yl)-1H-pyrazole-4-carboxamide]	0 to 33%	0 to 33%			
COc1nccc(-c2cc3cnc(NC(=O)c4cnn(CC5CCCO5)c4)cc3[nH]2)n1 (stereo in doubt) [Example 231, (R)-N-(2-(2-methoxypyrimidin-4-yl)-1H-pyrrolo[3,2-c]pyridin-6-yl)-1-((tetrahydrofuran-2-yl)methyl)-1H-pyrazole-4-carboxamide]	33 to 66%	33 to 66%			
Cc1cc(-c2cc3cnc(NC(=O)OC4CCCC4)cc3[nH]2)ccn1 [Example 170, cyclopentyl 2-(2-methylpyridin-4-yl)-1H-pyrrolo[3,2-c]pyridin-6-ylcarbamate]				0 to 33%	67 to 100%
c1ncc(-c2cc3cnc(Nc4cnn(C5CCOCC5)c4)cc3[nH]2)o1 [Example 147, 2-(oxazol-5-yl)-N-(1-(tetrahydro-2H-pyran-4-yl)-1H-pyrazol-4-yl)-1H-pyrrolo[3,2-c]pyridin-6-amine]				0 to 33%	67 to 100%
Cc1nn(C)cc1C(=O)Nc1cc2c(cn1)cc(-c1ccnc(NCC(F)(F)F)n1)n2C [Example 240, 1,3-dimethyl-N-(1-methyl-2-(2-(2,2,2-trifluoroethylamino)pyrimidin-4-yl)-1H-pyrrolo[3,2-c]pyridin-6-yl)-1H-pyrazole-4-carboxamide]	0 to 33%	0 to 33%			
Cn1cnc(-c2cc3cnc(NC4CCOCC4)cc3n2C)c1 [Example 348, 1-methyl-2-(1-methyl-1H-imidazol-4-yl)-N-(tetrahydro-2H-pyran-4-yl)-1H-pyrrolo[3,2-c]pyridin-6-amine]			> 1 µM		
COc1nccc(-c2cc3cnc(NC(=O)c4cnn(CC5CCOC5)c4)cc3[nH]2)n1 (stereo in doubt) [Example 184, (R)-N-(2-(2-methoxypyrimidin-4-yl)-1H-pyrrolo[3,2-c]pyridin-6-yl)-1-((tetrahydrofuran-3-yl)methyl)-1H-pyrazole-4-carboxamide]				0 to 33%	67 to 100%

Compound	inhibition at 1 µM [1]	inhibition at 10 µM [2]	EC50	inhibition at 1 µM (single point inhibition @ 1 uM)	inhibition at 10 µM [3]
O=C(CC1CCCC1)Nc1cc2[nH]c(-c3ccncc3)cc2cn1 [Example 207, 2-cyclopentyl-N-(2-(pyridin-4-yl)-1H-pyrrolo[3,2-c]pyridin-6-yl)acetamide]	0 to 33%	67 to 100%			
CCOc1nccc(-c2cc3cnc(NC(=O)C4C5CCCCC54)cc3[nH]2)n1 (stereo not drawn) [Example 158, N-(2-(2-ethoxypyrimidin-4-yl)-1H-pyrrolo[3,2-c]pyridin-6-yl)bicyclo[4.1.0]heptane-7-carboxamide]				0 to 33%	67 to 100%
Cc1nccc(-c2cc3cnc(NC(=O)C4CC4)cc3n2C)n1 [Example 100, N-(1-methyl-2-(2-methylpyrimidin-4-yl)-1H-pyrrolo[3,2-c]pyridin-6-yl)cyclopropanecarboxamide]			> 1 µM		
CC(C)n1cc(C(=O)Nc2cc3[nH]c(-c4ccncc4)cc3cn2)cn1 [Example 162, 1-isopropyl-N-(2-(pyridin-4-yl)-1H-pyrrolo[3,2-c]pyridin-6-yl)-1H-pyrazole-4-carboxamide]				0 to 33%	67 to 100%
CC(C)CNc1cc2[nH]c(-c3cccnc3)cc2cn1 [Example 273, N-isobutyl-2-(pyridin-3-yl)-1H-pyrrolo[3,2-c]pyridin-6-amine]	0 to 33%	0 to 33%			
Cc1ccc(-c2cc3cnc(NC(=O)C4CC4)cc3n2C)nc1 [Example 347, N-(1-methyl-2-(5-methylpyridin-2-yl)-1H-pyrrolo[3,2-c]pyridin-6-yl)cyclopropanecarboxamide]			> 1 µM		
Cc1cc(-c2cc3cnc(NC(=O)C4CC4)cc3n2CCO)ccn1 [Example 93, N-(1-(2-hydroxyethyl)-2-(2-methylpyridin-4-yl)-1H-pyrrolo[3,2-c]pyridin-6-yl)cyclopropanecarboxamide]			> 1 µM	0 to 33%	0 to 33%
CCn1c(-c2cc(C)ncn2)cc2cnc(NC(=O)C3CC3)cc21 [Example 122, N-(1-ethyl-2-(6-methylpyrimidin-4-yl)-1H-pyrrolo[3,2-c]pyridin-6-yl)cyclopropanecarboxamide]			> 1 µM		
Cc1cc(-c2cc3cnc(NC(=O)C4CC4)cc3n2CCN(C)C)ncn1 [Example 124, N-(1-(2-(dimethylamino)ethyl)-2-(6-methylpyrimidin-4-yl)-1H-pyrrolo[3,2-c]pyridin-6-yl)cyclopropanecarboxamide]			> 1 µM		
Cn1ccc(-c2cc3cnc(NC(=O)C4CC4)cc3n2C)n1 [Example 345, N-(1-methyl-2-(1-methyl-1H-pyrazol-3-yl)-1H-pyrrolo[3,2-c]pyridin-6-yl)cycloproapnecarboxamide]			> 1 µM		
Cn1cnc(-c2cc3cnc(NC(=O)C4CC4)cc3n2C)c1 [Example 342, N-(1-methyl-2-(1-methyl-1H-imidazol-4-yl)-1H-pyrrolo[3,2-c]pyridin-6-yl)cyclopropanecarboxamide]			> 1 µM		
Cn1cc(Nc2cc3[nH]c(-c4ccnc(C#N)c4)cc3cn2)cn1 [Example 56, 4-(6-(1-methyl-1H-pyrazol-4-ylamino)-1H-pyrrolo[3,2-c]pyridin-2-yl)picolinonitrile]			> 1 µM	0 to 33%	67 to 100%
Cc1nccc(-c2cc3cnc(NC(=O)c4cnn(C)c4)cc3[nH]2)c1F [Example 283, N-(2-(3-fluoro-2-methylpyridin-4-yl)-1H-pyrrolo[3,2-c]pyridin-6-yl)-1-methyl-1H-pyrazole-4-carboxamide]	0 to 33%	0 to 33%			
Cn1cc(C(=O)Nc2cc3[nH]c(-c4ccnc(OCC5CCC5)n4)cc3cn2)cn1 [Example 313, N-(2-(2-(cyclobutylmethoxy)pyrimidin-4-yl)-1H-pyrrolo[3,2-c]pyridin-6-yl)-1-methyl-1H-pyrazole-4-carboxamide]	0 to 33%	0 to 33%			
Cn1cc(C(=O)Nc2cc3[nH]c(-c4cc(C(F)(F)F)ccn4)cc3cn2)cn1 [Example 299, 1-methyl-N-(2-(4-(trifluoromethyl)pyridin-2-yl)-1H-pyrrolo[3,2-c]pyridin-6-yl)-1H-pyrazole-4-carboxamide]	0 to 33%	0 to 33%			
Cc1cc(-c2cc3cnc(NC(=O)C4CC4)cc3n2C(C)C)ccn1 [Example 329, N-(1-isopropyl-2-(2-methylpyridin-4-yl)-1H-pyrrolo[3,2-c]pyridin-6-yl)cyclopropanecarboxamide]	0 to 33%	0 to 33%			
O=C(Nc1cc2[nH]c(-c3ccncc3)cc2cn1)C1CCCCC1 [Example 217, N-(2-(pyridin-4-yl)-1H-pyrrolo[3,2-c]pyridin-6-yl)cyclohexanecarboxamide]	0 to 33%	33 to 66%			

— patent publication US20240124444A1 (Celgene Corporation, priority 2020, published 2024)
